Laboratory results: patent US7161032B2, “Sulfonamide derivatives, insecticides for agricultural and horticultural use, and usage thereof” (Nihon Nohyaku Co., Ltd., priority 2002, dated 2007)

What was measured:
Format in all cases: in vivo
[1] = system: Smaller Tea Tortrix (Adoxophyes sp.); test: Insecticidal effect on smaller tea tortrix (Test Example 3): tea leaves immersed in 50 ppm liquid chemical; settings: smaller tea tortrix (Adoxophyes sp.) larvae, 8 days after inoculation, 25° C., humidity 70%
Description: Tea leaves were immersed for about 30 seconds in a liquid chemical prepared by diluting a preparation containing each compound listed in Table 1 or 2 as an active ingredient to adjust the concentration to 50 ppm. After air-dryness, the tea leaves were placed in a plastic Petri dish with a diameter of 9 cm and inoculated with larvae of smaller tea tortrix, after which the dish was allowed to stand in a room thermostated at 25° C. and having a humidity of 70%. Eight days after the inoculation, the dead and alive were counted and the insecticidal effect was judged according to the criterion shown in Test Example 1. The test was carried out with triplicate groups of 10 insects.

[2] = system: Diamond Back Moth (Plutella xylostella); test: Insecticidal effect on diamond back moth (Test Example 1): egg-bearing Chinese cabbage seedling immersed in 50 ppm liquid chemical
Description: Adult diamond back moths were released and allowed to oviposit on a Chinese cabbage seedling. Two days after the release, the seedling having the eggs deposited thereon was immersed for about 30 seconds in a liquid chemical prepared by diluting a preparation containing each compound listed in Table 1 or 2 as an active ingredient to adjust the concentration to 50 ppm. After air-dryness, it was allowed to stand in a room thermostated at 25° C. Six days after the immersion, the hatched insects were counted. The mortality was calculated according to the following equation and the insecticidal effect was judged according to the criterion shown below. The test was carried out with triplicate groups of 10 insects. [formula]

[3] = system: Common Cutworm (Spodoptera litura); test: Insecticidal effect on common cutworm (Test Example 2): cabbage leaf piece immersed in 50 ppm liquid chemical; settings: common cutworm (Spodoptera litura) second-instar larvae, 8 days after inoculation, 25° C.
Description: A piece of cabbage leaf (cultivar: Shikidori) was immersed for about 30 seconds in a liquid chemical prepared by diluting a preparation containing each compound listed in Table 1 or 2 as an active ingredient to adjust the concentration to 50 ppm. After air-dryness, it was placed in a plastic Petri dish with a diameter of 9 cm and inoculated with second-instar larvae of common cutworm, after which the dish was closed and then allowed to stand in a room thermostated at 25° C. Eight days after the inoculation, the dead and alive were counted. The mortality was calculated according to the following equation and the insecticidal effect was judged according to the criterion shown in Test Example 1. The test was carried out with triplicate groups of 10 insects. [formula]

SMILES	Insecticidal effect (mortality grade), Test Example 3 [1]	Insecticidal effect (mortality grade), Test Example 1 [2]	Insecticidal effect (mortality grade), Test Example 2 [3]
Cc1cc(C(F)(C(F)(F)F)C(F)(F)F)ccc1NC(=O)c1cccc(I)c1C(=O)NC(C)CS(=O)(=O)NC(C)c1ccccc1 (stereo not drawn) [1-44]	A (Mortality 100%)	A (Mortality 100%)	A (Mortality 100%)
Cc1cc(C(F)(C(F)(F)F)C(F)(F)F)ccc1NC(=O)c1cccc(I)c1C(=O)NC(C)CS(=O)(=O)NCc1cccnc1 (stereo not drawn) [1-40]	A (Mortality 100%)	A (Mortality 100%)	A (Mortality 100%)
Cc1cc(C(F)(C(F)(F)F)C(F)(F)F)ccc1NC(=O)c1cccc(I)c1C(=O)NC(C)CS(=O)(=O)NCc1ccccn1 (stereo not drawn) [1-39]	A (Mortality 100%)	A (Mortality 100%)	A (Mortality 100%)
CCN(CC)S(=O)(=O)CC(C)NC(=O)c1c(I)cccc1C(=O)Nc1ccc(C(F)(F)C(F)(F)F)cc1C (stereo not drawn) [1-301]	A (Mortality 100%)	A (Mortality 100%)	A (Mortality 100%)
Cc1cc(C(F)(C(F)(F)F)C(F)(F)F)ccc1NC(=O)c1cccc(I)c1C(=O)NC(C)CS(=O)(=O)NCCCl (stereo not drawn) [1-71]	A (Mortality 100%)	A (Mortality 100%)	A (Mortality 100%)
Cc1cc(C(F)(C(F)(F)F)C(F)(F)F)ccc1NC(=O)c1cccc(I)c1C(=O)NC(C)CS(=O)(=O)NCc1ccncc1 (stereo not drawn) [1-41]	A (Mortality 100%)	A (Mortality 100%)	A (Mortality 100%)
CSC[C@H](C)NS(=O)(=O)C[C@H](C)NC(=O)c1c(I)cccc1C(=O)Nc1ccc(C(F)(C(F)(F)F)C(F)(F)F)cc1C [1-147]	A (Mortality 100%)	A (Mortality 100%)	A (Mortality 100%)
Cc1cc(C(F)(C(F)(F)F)C(F)(F)F)ccc1NC(=O)c1cccc(I)c1C(=O)NC(C)CS(=O)(=O)NCCO (stereo not drawn) [1-72]	A (Mortality 100%)	A (Mortality 100%)	A (Mortality 100%)
CCN(CC)S(=O)(=O)CC(C)(C)NC(=O)c1ccccc1C(=O)Nc1ccc(C(F)(C(F)(F)F)C(F)(F)F)cc1C [1-208]	A (Mortality 100%)	A (Mortality 100%)	E (Mortality less than 50%)
Cc1cc(C(F)(C(F)(F)F)C(F)(F)F)ccc1NC(=O)c1cccc(I)c1C(=O)NC(C)(C)CS(=O)(=O)NCC[S+]([O-])c1ccccc1 (stereo not drawn) [1-88]	A (Mortality 100%)	A (Mortality 100%)	A (Mortality 100%)
CCN(CC)S(=O)(=O)CC(C)NC(=O)c1c(Br)cccc1C(=O)Nc1ccc(C(F)(C(F)(F)F)C(F)(F)F)cc1C (stereo not drawn) [1-214]	A (Mortality 100%)	A (Mortality 100%)	A (Mortality 100%)
Cc1cc(C(F)(C(F)(F)F)C(F)(F)F)ccc1NC(=O)c1cccc(I)c1C(=O)NC(C)CS(=O)(=O)NCc1ccccc1[N+](=O)[O-] (stereo not drawn) [1-28]	A (Mortality 100%)	A (Mortality 100%)	A (Mortality 100%)
CCN(CC)S(=O)(=O)CC(C)NC(=O)c1c(I)cccc1C(=O)Nc1ccc(Cl)c(Cl)c1Cl (stereo not drawn) [1-267]	E (Mortality less than 50%)	A (Mortality 100%)	C (Mortality 89–80%)
CCNC(=O)C(C)NS(=O)(=O)CC(C)NC(=O)c1c(I)cccc1C(=O)Nc1ccc(C(F)(C(F)(F)F)C(F)(F)F)cc1C (stereo not drawn) [1-104]	A (Mortality 100%)	A (Mortality 100%)	A (Mortality 100%)
CCN(CC)S(=O)(=O)CC(C)(C)NC(=O)c1c(I)cccc1C(=O)Nc1ccc(OC(F)(F)F)cc1Cl [1-286]	E (Mortality less than 50%)	A (Mortality 100%)	A (Mortality 100%)
Cc1cc(C(F)(C(F)(F)F)C(F)(F)F)ccc1NC(=O)c1cccc(I)c1C(=O)NC(C)CS(N)(=O)=O (stereo not drawn) [1-1]	A (Mortality 100%)	A (Mortality 100%)	A (Mortality 100%)
Cc1cc(C(F)(F)C(F)(F)F)ccc1NC(=O)c1cccc(I)c1C(=O)NC(C)(C)CS(=O)(=O)NCCSc1ccccc1 [1-310]	A (Mortality 100%)	A (Mortality 100%)	A (Mortality 100%)
CCN(CC)S(=O)(=O)CC(C)NC(=O)c1c(I)cccc1C(=O)Nc1ccc(C(F)(C(F)(F)F)C(F)(F)F)cc1C (stereo not drawn) [1-6]	A (Mortality 100%)	A (Mortality 100%)	A (Mortality 100%)
CCS(=O)(=O)CCNS(=O)(=O)CC(C)(C)NC(=O)c1c(I)cccc1C(=O)Nc1ccc(C(F)(C(F)(F)F)C(F)(F)F)cc1C [1-86]	A (Mortality 100%)	A (Mortality 100%)	A (Mortality 100%)
CSCCNS(=O)(=O)CC(C)(C)NC(=O)c1c(I)cccc1C(=O)Nc1ccc(C(F)(F)C(F)(F)F)cc1C [1-304]	A (Mortality 100%)	A (Mortality 100%)	A (Mortality 100%)
Cc1cc(C(F)(C(F)(F)F)C(F)(F)F)ccc1NC(=O)c1cccc(I)c1C(=O)NC(C)CS(=O)(=O)NC(C)C(N)=O (stereo not drawn) [1-103]	A (Mortality 100%)	A (Mortality 100%)	A (Mortality 100%)
